Measurements reported in paper PMC6792352, “Limited Chemical Structural Diversity Found to Modulate Thyroid Hormone Receptor in the Tox21 Chemical Library” (Environmental Health Perspectives, 2019).
Structures can show the parent of a compound that is named as a salt. Where two headings read alike, the source gives them in different places.

How the values were obtained:
in vitro = conditions: rat, gh3-tre-luc cells, AC50 (uM) modified / 1000
GH3-TRE-Luc cell line = conditions: read-out: AC50 (uM) modified / 1000, viability, 1 nM T3 present, 24 h

Row | Structure (SMILES) | CC50 at 24 h (in vitro) | further results
1 | CN(C)c1ccc(C(=N)c2ccc(N(C)C)cc2)cc1 [Auramine hydrochloride] | 63.2 µM | CC50 (GH3-TRE-Luc cell line; Tox21_110001=Tox21_303002): 57.6 µM
2 | CC[C@H]1OC(=O)[C@H](C)[C@@H](O[C@H]2C[C@@](C)(OC)[C@@H](O)[C@H](C)O2)[C@H](C)[C@@H](O[C@@H]2O[C@H](C)C[C@H](N(C)C)[C@H]2O)[C@](C)(O)C[C@@H](C)CN(C)[C@H](C)[C@@H](O)[C@]1(C)O [Azithromycin] | 28.3 µM | CC50 (GH3-TRE-Luc cell line; Tox21_110001=Tox21_111008): 35.5 µM
3 | CCCCN(CC)c1c([N+](=O)[O-])cc(C(F)(F)F)cc1[N+](=O)[O-] [Benfluralin] | > 90 µM | CC50 (GH3-TRE-Luc cell line; Tox21_110001=Tox21_300774): 46 µM
4 | CC1COc2ccccc2N1C(=O)C(Cl)Cl (stereo not shown) [Benoxacor] | 11.9 µM | CC50 (GH3-TRE-Luc cell line; Tox21_110001=Tox21_303359): 22.1 µM
5 | CN1[C@@H]2CC[C@H]1C[C@@H](OC(c1ccccc1)c1ccccc1)C2 [Benztropine] | 24.5 µM | CC50 (GH3-TRE-Luc cell line; Tox21_110001=Tox21_111695): 13.8 µM
6 | CCCCCCCCCCCCCCCC[N+](C)(C)Cc1ccccc1 [Benzylhexadecyldimethylammonium chloride] | 21.5 µM | CC50 (GH3-TRE-Luc cell line; Tox21_110001=Tox21_112574): 13.4 µM
7 | OC(CCN1CCCCC1)(c1ccccc1)C1CC2C=CC1C2 (stereo not shown) [Biperiden hydrochloride] | 22.6 µM | CC50 (GH3-TRE-Luc cell line; Tox21_110001=Tox21_113064): 27 µM
8 | c1cc(OCC2CO2)ccc1Cc1ccc(OCC2CO2)cc1 (stereo not shown) [Bis[4-(glycidyloxy)phenyl]methane] | 42.4 µM | CC50 (GH3-TRE-Luc cell line; Tox21_110001=Tox21_303420): 48.6 µM
9 | CC(C)(c1ccc(OCC2CO2)cc1)c1ccc(OCC2CO2)cc1 (stereo not shown) [Bisphenol A diglycidyl ether] | 66.1 µM | CC50 (GH3-TRE-Luc cell line; Tox21_110001=Tox21_303315): 61.9 µM
10 | Oc1ccc(C(c2ccc(O)cc2)(C(F)(F)F)C(F)(F)F)cc1 [Bisphenol AF] | 32.9 µM | CC50 (GH3-TRE-Luc cell line; Tox21_110001=Tox21_303641): 54.4 µM
11 | CCC(C)(c1ccc(O)cc1)c1ccc(O)cc1 [Bisphenol B] | 78.3 µM | CC50 (GH3-TRE-Luc cell line; Tox21_110001=Tox21_300198): 88.4 µM
12 | CC(C)C[C@H](NC(=O)[C@H](Cc1ccccc1)NC(=O)c1cnccn1)B(O)O [Bortezomib] | 0.0167 µM | CC50 (GH3-TRE-Luc cell line; Tox21_110001=Tox21_112672): 0.00954 µM
13 | O=[N+]([O-])C(Br)(CO)CO [Bronopol] | 22 µM | CC50 (GH3-TRE-Luc cell line; Tox21_110001=Tox21_112079): 21.8 µM
14 | O=S(=O)(O)c1cc(S(=O)(=O)O)c2c(N=Nc3ccccc3)c(O)ccc2c1 [C.I. Acid Orange 10] | 46.4 µM | CC50 (GH3-TRE-Luc cell line; Tox21_110001=Tox21_303019): 48.6 µM
15 | Cc1ccc(S(=O)(=O)Oc2ccc(N=Nc3ccc(-c4ccc(N=Nc5c(O)ccc6cc(S(=O)(=O)O)cc(S(=O)(=O)O)c56)c(C)c4)cc3C)cc2)cc1 [C.I. Acid Red 114] | 32.3 µM | CC50 (GH3-TRE-Luc cell line; Tox21_110001=Tox21_302977): 17.5 µM
16 | Nc1c(/N=N/c2ccc(-c3ccc(/N=N/c4cc(S(=O)(=O)O)c5ccccc5c4N)cc3)cc2)cc(S(=O)(=O)O)c2ccccc12 [C.I. Direct Red 28] | 27 µM | CC50 (GH3-TRE-Luc cell line; Tox21_110001=Tox21_111605): 16.3 µM
17 | Oc1ccc2ccccc2c1N=Nc1ccccc1 [C.I. Solvent Yellow 14] | > 90 µM | CC50 (GH3-TRE-Luc cell line; Tox21_110001=Tox21_300297): 62.3 µM
18 | Cc1c(C(=O)O)c(O)cc2c1C(=O)c1c(O)c([C@@H]3O[C@H](CO)[C@@H](O)[C@H](O)[C@H]3O)c(O)c(O)c1C2=O [Carminic acid] | 55.9 µM | CC50 (GH3-TRE-Luc cell line; Tox21_110001=Tox21_300294): 56.2 µM
19 | CC(=O)[C@]1(O)Cc2c(O)c3c(c(O)c2[C@@H](O[C@H]2C[C@H](N)[C@H](O)[C@H](C)O2)C1)C(=O)c1c(O)cccc1C3=O [Carminomycin] | 0.177 µM | CC50 (GH3-TRE-Luc cell line; Tox21_110001=Tox21_111978): 0.212 µM
20 | Oc1ccccc1O [Catechol] | 33.7 µM | CC50 (GH3-TRE-Luc cell line; Tox21_110001=Tox21_300153): 32.6 µM
